Our source for the IC50, inhibition and Activity values is ChEMBL document CHEMBL4482306, “Methods for inhibiting fascin” (2014).

The subject of assay [1] is 4T1. As to the kind of experiment: Antimigratory activity against mouse 4T1 cells assessed as inhibition of cell migration incubated for 6 hrs by crystal violet staining based Boyden-Chamber cell migration assay. The class given is functional. Conditions: 4T1, 6 h.
For assay [2], the system named is 4T1. The assay can be described thus: Antitumor activity against mouse 4T1 cells implanted in Balb/c mouse mouse assessed as inhibition of breast tumor metastasis at 30 mg/kg dosed daily for 2 weeks starting 7 days post tumor cell implantation and measured on day 28 by 6-thioguanine clonogenic assay. The class given is functional, organism-based.
Assay [3] addresses Fascin (Homo sapiens) (UniProt Q16658). As to the kind of experiment: Inhibition of GST-tagged recombinant human fascin 1 expressed in Escherichia coli BL21/DE3 assessed as average fiber thickness at 30 uM pre-incubated for 30 mins before polymerized actin addition and followed by Alexa fluro 488 phalloidin addition and measured after 1 hr under dark condition (reference value: 0.39 a.u).

The subject of assay [4] is 4T1. As to the kind of experiment: Antitumor activity against mouse 4T1 cells implanted in Balb/c mouse mouse assessed as inhibition of breast tumor metastasis at 8 mg/kg dosed daily for 2 weeks starting 7 days post tumor cell implantation and measured on day 28 by 6-thioguanine clonogenic assay. It is filed as functional, organism-based.

Active and inactive are the calls of the source. The rule behind the calls is not given here.

As a reminder, the IC50 is the midpoint of a concentration-inhibition curve. Regarding `Cc1ccc(S(=O)(=O)Nc2cc(Sc3nc[nH]n3)c(O)c3ccccc23)c(C)c1`, the half-maximal inhibitory concentration (IC50) in assay [1] was above 30 µM.

Take `COc1ccc(S(=O)(=O)Nc2cc(Sc3nc[nH]n3)c(O)c3ccccc23)cc1`: in assay [2], the inhibition result is “Active”.

In the case of `CCOc1ccc(S(=O)(=O)Nc2cc(Sc3nc[nH]n3)c(O)c3ccccc23)cc1`, the 50% inhibitory concentration (IC50) in assay [1] is above 20 µM.

In the case of `O=[N+]([O-])c1ccc(Cl)c(S(=O)(=O)Nc2nc3ccc(Cl)cc3s2)c1`, in assay [3], the Activity turned out to be 0.35 a.u. The inhibition result in assay [4] was “Active”.

As to `O=C1C(Sc2nc[nH]n2)=C/C(=N/S(=O)(=O)c2ccccc2)c2ccccc21`, the concentration for half-maximal inhibition (IC50) in assay [1] is above 30 µM.

Regarding `c1ccc(Nc2nc(-c3ccccc3)[n+](-c3ccccc3)s2)cc1`, the IC50 in assay [1] is above 50 µM.
